EP3419609B1, “TREATMENT OF ALKAPTONURIA AND TYROSINEMIA TYPE 1” (Università degli Studi di Siena, priority 2016, dated 2017)
Read-outs that look alike come from different tables or passages of the source.

Legend:
[1] = test system: primary human fibroblasts (HFb); test: in vitro; type: cell-based
Experimental: (§1) 12×10^4 primary human fibroblasts (ATCC, cat PCS-201-012) were treated with compounds at various concentrations (10^-7 M, 10^-6 M, 10^-5 M, 10^-4 M, 10^-3 M) for 24 and 144 h. HFb were cultured as described in [21]. Cellular viability was quantified by the MTT assay (Sigma-Aldrich cod. M5655) as described in [22]. Controls were performed treating the cells with vehicle (DMSO) alone. Calculation of LD50 was performed by means of the Origin® - Data Analysis and Graphing software using a sigmoid type interpolating curve.
(§2) LD50 was evaluated in vitro using the MTT cell viability assay for the first time on human cells, in particular on primary human fibroblasts (HFb). […] Intracellular tyrosine was measured in HFb by LC-MS-MS analysis.

[2] = test system: human fibroblasts (HFb); test: Tyrosine dosage: intracellular tyrosine in HFb by LC-MS-MS; type: cell-based; conditions: for slope of dose-response curve of intracellular tyrosine: tyrosine ng in 9×10^4 cells versus concentration, Figure 3A
Experimental: Intracellular tyrosine was calculated in HFb (9×10^4 cells/well) treated for 72 h with the compounds under assessment at various concentrations (10^-8, 10^-7, 10^-6 and 10^-5 M); controls were performed using the carrier at the concentration corresponding to the highest dose of the compound under assessment. At the end of treatment, the cells were recovered by scraping in the presence of norvaline (10^-3 M, used as internal standard, Sigma-Aldrich cod. N7627) and cold methanol (40 µL, Sigma-Aldrich cod. 34860), and subsequently lysed by cycles of freezing/thawing in a bath of dry ice/nitrogen. The lysate was centrifuged (6000g for 5 min) and the supernatant was then recovered, evaporated and re-suspended with 100 µL of 0.05% formic acid. Each sample was analysed by LC-MS-MS. In particular, the analysis was performed with a chromatographic instrument manufactured by Varian (Varian Inc.) run by the software Varian MS Workstation System Control Vers. […] Subsequently, the concentration of each compound was correlated with the amount of intracellular tyrosine contained in 9×10^4 cells and the resulting dose-response curve was obtained using the Origin® - Data Analysis and Graphing software by means of a linear type interpolating curve.
as §2

[3] = target: T1, 4-HPPD (Rattus norvegicus, UniProt P32755); test: Determination of 4-HPPD activity by oxygen consumption (SDR SensorDish Reader) in rat liver cytosol; type: biochemical, male Wistar rat
T1 construct: from tissue; host or cells: liver cytosol of a male Wistar rat
Experimental: 4-HPPD activity was evaluated in the liver cytosol of a male Wistar rat by monitoring oxygen consumption through the use of the SDR SensorDish® Reader (Presens, Precision Sensing GmbH, Regensburg, Germany). Briefly, a special test tube with an oxygen sensor placed on the bottom was filled with 0.2 M sodium phosphate buffer with pH 7.4, 1.7 mM ascorbic acid (used as a cofactor) and 10.92 mg of rat enzyme preparation (4-HPPD source). The mixture was equilibrated at 37°C for 5 min. and the reaction was started by the addition of substrate ([…], Sigma-Aldrich cod. SAE0003). […] The percentage of inhibition of enzymatic activity was calculated as the ratio of the slopes (decrease of the concentration of O2 (µmol/L) per min.) of the samples containing the inhibitor versus the untreated controls corrected with the negative control values. The IC50 values were calculated by means of regression analysis in the range of tested concentrations by means of the Origin® - Data Analysis and Graphing software using a sigmoid type interpolating curve and plotting on the x-axis the concentrations of the compounds and on the y-axis oxygen consumption values expressed as a percentage of 4-HPPD inhibition, the reduction of oxygen being correlated with inhibition of the enzyme.
4-HPPD inhibition was determined in the cytosolic extract of rat liver (source of the enzyme), by evaluation of enzymatic consumption of oxygen using the SDR SensorDish ® Reader, and was expressed as an IC50 value.

[4] = in vitro; type: cell-based; conditions: after 144 h of treatment, concentration 1 mM; read-out: viability of HFb
Experimental: as §1, §2

[5] = alkaptonuria patients, over the course of 3 years; cited from earlier work
[6] = rat liver cytosol, oxygen consumption, read-out: IC50
[7] = rat liver cytosol, oxygen consumption, read-out: IC50 (4-HPPD inhibitory activity)
[8] = rat liver cytosol, oxygen consumption

T1 sequence (P32755 whole entry): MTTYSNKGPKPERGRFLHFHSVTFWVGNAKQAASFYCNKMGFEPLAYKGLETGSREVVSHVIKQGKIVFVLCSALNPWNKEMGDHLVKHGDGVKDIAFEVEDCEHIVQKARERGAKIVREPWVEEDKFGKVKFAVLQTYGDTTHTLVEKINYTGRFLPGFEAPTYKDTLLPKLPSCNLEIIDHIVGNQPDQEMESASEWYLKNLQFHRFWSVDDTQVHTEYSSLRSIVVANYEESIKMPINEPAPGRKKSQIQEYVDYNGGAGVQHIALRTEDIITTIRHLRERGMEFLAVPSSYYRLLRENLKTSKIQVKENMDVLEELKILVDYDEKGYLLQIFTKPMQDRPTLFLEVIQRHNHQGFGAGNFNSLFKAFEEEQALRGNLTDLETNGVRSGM

CS(=O)(=O)c1ccc(C(=O)C2C(=O)CCCC2=O)c(Cl)c1COCC(F)(F)F [Compound 3, 2-[2-Chloro-4-methylsulfonyl-3-(2,2,2-trifluoroetoxymethyl)benzoyl]cyclohexane-1,3-dione]
LD50 24 hours ([1]; HFb, MTT, 24 hours treatment): >1 mM [c]
LD50 144 hours ([1]; HFb, MTT, 144 hours treatment): >1 mM [c]
LD50 ([1]; HFb, treatment time not given): greater than 10^-3 M
slope of dose-response curve of intracellular tyrosine ([2]; 72 h): 1.89
IC50 [3, 6]: 152 ± 6 nM
IC50 [3, 7]: 152 nM

CC1(C)CC(=O)C(C(=O)c2ccc(C(F)(F)F)cc2[N+](=O)[O-])C(=O)C1 [Compound 15, 2-(2-Nitro-4-trifluoromethylbenzoyl)-5,5-dimethyl-cyclohexane-1,3-dione]
cytotoxicity (in words) ([1]; HFb, LD50 24 h): not cytotoxic
LD50 24 hours ([1]; HFb, MTT, 24 hours treatment): > 0.01 mM
IC50 [3]: 61.6 ± 7.4 nM

CC1(C)CC(=O)C(C(=O)c2ccccc2)C(=O)C1 [Compound 9, 2-Benzoyl-5,5-dimethyl-cyclohexane-1,3-dione]
LD50 24 hours ([1]; human, 24 h): >1 mM [c]
LD50 144 hours ([1]; human, 144 h): >1 mM [c]
IC50 [3, 8]: no inhibition

CC1(C)CC(=O)C(C(=O)c2ccc([N+](=O)[O-])cc2Cl)C(=O)C1 [Compound 6, 2-(2-chloro-4-nitro-benzoyl)-5,5-dimethyl-cyclohexane-1,3-dione]
viability at 144 h, 1 mM [4]: ~75%
LD50 24 hours ([1]; human, 24 h): >1 mM [c]
LD50 144 hours ([1]; human, 144 h): >1 mM [c]
intracellular tyrosine accumulation lower than that found for compound 1 ([2]; highest concentration tested, treatment for three days, p<0.01): about 7%
residual activity of the enzyme ([3]; rat liver cytosol 4-HPPD): ~30%
IC50 [3, 6]: 36.4 ± 9.3 nM
IC50 ([3]; rat liver cytosol, read-out: IC50): ~36.4 nM

O=C1CCCC(=O)C1C(=O)c1ccc(C(F)(F)F)cc1[N+](=O)[O-] [Compound 1, 2-(2-nitro-4-(trifluoromethyl)benzoyl)cyclohexane-1,3-dione, reference compound]
LD50 24 hours ([1]; human, 24 h): >1 mM [c]
LD50 at 24 h ([1]; human, 24 h): > 10^-3 M
LD50 144 hours ([1]; human, 144 h): ~1 mM
LD50 at 144 h ([1]; human, 144 h): 10^-3 M
intracellular tyrosine increased compared to untreated HFb ([2]; 72 h, concentration 10^-5 M): ~32%
intracellular tyrosine increased compared to untreated HFb ([2]; 72 h, concentration 10^-6 M): about 21%
slope of dose-response curve of intracellular tyrosine ([2]; 72 h): 5.47
reduction of HGA in urine and plasma [5]: 95%

CS(=O)(=O)c1cc(C(F)(F)F)ccc1C(=O)c1cnoc1C1CC1 [Compound 5]
LD50 24 hours ([1]; HFb, MTT, 24 hours treatment): >1 mM [c]
LD50 144 hours ([1]; HFb, MTT, 144 hours treatment): 0.11 ± 0.07 mM
IC50 [3]: 399 ± 19 nM

CC1(C)C(Cl)C(=O)C(C(=O)c2ccccc2)C(=O)C1Cl (centres unmarked) [Compound 11, 2-Benzoyl-4,6-dichloro-5,5-dimethyl-cyclohexane-1,3-dione]
LD50 24 hours ([1]; human, 24 h): >1 mM [c]
LD50 144 hours ([1]; human, 144 h): 0.29 ± 0.08 mM
IC50 [3, 6]: 192 ± 2 nM

Cc1cc(C2C(=O)C(C(=O)c3ccc(Cl)cc3)C(=O)CC2(C)C)on1 (centres unmarked) [Compound 10, 2-(4-chlorobenzoyl)-5,5-dimethyl-4-(3-methyl-isoxazol-5-yl)-cyclohexane-1,3-dione]
LD50 24 hours ([1]; human, 24 h): >1 mM [c]
LD50 144 hours ([1]; human, 144 h): 0.82 ± 0.20 mM
IC50 [3, 6]: 59900 ± 1800 nM

CC1(C)CC(=O)C(C(=O)c2ccccc2)C(=O)C1Cl (centres unmarked) [Compound 8, 2-Benzoyl-4-chloro-5,5-dimethyl-cyclohexane-1,3-dione]
LD50 24 hours ([1]; human, 24 h): >1 mM [c]
LD50 144 hours ([1]; human, 144 h): >1 mM [c]
IC50 [3, 8]: no inhibition

CS(=O)(=O)c1ccc(C(=O)C2C(=O)C(O)CC(O)C2=O)c(Cl)c1COCC(F)(F)F (centres unmarked) [Compound 2, 2-[2-Chloro-4-methylsulfonyl-3-(2,2,2-trifluoroetoxyimethyl)benzoyl]-4,6-dihydroxy-cyclohexane-1,3-dione]
LD50 24 hours ([1]; human, 24 h): 0.48 ± 0.04 mM
LD50 144 hours ([1]; human, 144 h): 0.48 ± 0.03 mM
IC50 [3, 6]: 227 ± 9 nM

CS(=O)(=O)c1ccc(C(=O)C2C(=O)CCCC2=O)c([N+](=O)[O-])c1 [Compound 4, 2-(4-Methylsulfonyl-2-nitrobenzoyl)-cyclohexane-1,3-dione]
LD50 24 hours ([1]; HFb, MTT, 24 hours treatment): 1.1 ± 0.1 mM
LD50 144 hours ([1]; HFb, MTT, 144 hours treatment): >1 mM [c]
tyrosine level lower than in the control ([2]; 72 h, highest inhibitor concentration, p<0.01): about 14%
intracellular tyrosine levels higher than in the control group ([2]; 72 h, lowest inhibitor concentration analysed, p<0.01): about 17%
IC50 [3, 6]: 36.7 ± 9.7 nM
IC50 [3, 7]: 36.7 nM

O=C1CCC(c2ccccc2)C(=O)C1C(=O)c1ccc(Cl)cc1Cl (centres unmarked) [Compound 13, 2-(2,4-dichlorobenzoyl) -4-phenyl-cyclohexane-1,3-dione]
LD50 24 hours ([1]; human, 24 h): >1 mM [c]
LD50 144 hours ([1]; human, 144 h): 0.36 ± 0.15 mM
IC50 [3, 6]: 279 ± 6 nM

COC(=O)C1C(=O)C(C(=O)c2ccc([N+](=O)[O-])cc2)C(=O)CC1(C)C (centres unmarked) [Compound 7, 2,2-Dimethyl-5-(4-nitrobenzoyl)-4,6-dioxycyclohexane methyl carboxylate]
LD50 24 hours ([1]; human, 24 h): 0.63 ± 0.12 mM
LD50 144 hours ([1]; human, 144 h): >1 mM [c]
IC50 [3, 8]: no inhibition

CC1(C)CC(=O)C(C(=O)c2ccc(C(F)(F)F)cc2Cl)C(=O)C1 [Compound 14, 2-(2-Chloro-4-trifluoromethylbenzoyl)-5,5-dimethyl-cyclohexane-1,3-dione]
cytotoxicity (in words) [1]: not cytotoxic
IC50 [3, 6]: 10500 ± 3700 nM
